This assay concerns the target Acetylcholinesterase (Electrophorus electricus, UniProt O42275). Nature of the assay: Inhibition of electric eel AChE after 30 mins by Ellman's method. (In general: DTNB colorimetry detects thiols as they appear.)

SMILES strings stand for the structures.

Acetylcholinesterase, sequence (O42275 whole entry): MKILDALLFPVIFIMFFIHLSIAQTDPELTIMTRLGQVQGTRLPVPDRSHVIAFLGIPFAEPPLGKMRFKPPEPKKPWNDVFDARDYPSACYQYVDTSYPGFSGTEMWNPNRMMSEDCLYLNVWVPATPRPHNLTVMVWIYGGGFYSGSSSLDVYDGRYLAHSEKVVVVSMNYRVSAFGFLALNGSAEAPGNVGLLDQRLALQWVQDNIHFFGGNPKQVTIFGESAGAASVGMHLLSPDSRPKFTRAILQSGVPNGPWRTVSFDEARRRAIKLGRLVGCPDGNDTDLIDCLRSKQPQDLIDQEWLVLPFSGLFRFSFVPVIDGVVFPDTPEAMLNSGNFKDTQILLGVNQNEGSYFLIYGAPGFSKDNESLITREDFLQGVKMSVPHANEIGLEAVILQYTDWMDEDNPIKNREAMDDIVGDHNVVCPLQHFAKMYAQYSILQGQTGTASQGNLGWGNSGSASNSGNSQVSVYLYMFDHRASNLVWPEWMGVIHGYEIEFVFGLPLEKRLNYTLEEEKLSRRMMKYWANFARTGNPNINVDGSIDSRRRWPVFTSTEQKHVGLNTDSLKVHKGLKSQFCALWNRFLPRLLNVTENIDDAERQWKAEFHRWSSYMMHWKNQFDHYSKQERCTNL

The compound `N#Cc1c(N)c(C#N)c(-c2ccc(Br)cc2)c2c1CC(c1ccccc1)S2` (racemic) gave an IC50 of 37.9 µM. This counts as double-digit micromolar.
`N#Cc1c(N)c(C#N)c(-c2ccc(F)cc2)c2c1CC(c1ccccc1)S2` (racemic) gave an IC50 of 32.3 µM.
As for `COc1ccc(-c2c(C#N)c(N)c(C#N)c3c2SC(c2ccc(C)cc2)C3)cc1` (racemic), the figure is 11.3 µM.
In turn, `COc1ccc(-c2c(C#N)c(N)c(C#N)c3c2SC(c2ccccc2)C3)cc1` (racemic) came in with an IC50 of 5.11 µM. Against the preceding compound, the IC50 is about 2.2-fold lower.
Under `Cc1ccc(C2Cc3c(C#N)c(N)c(C#N)c(-c4ccc(F)cc4)c3S2)cc1` (racemic) stands 18.1 µM; under `CC(C)c1ccc(C2Cc3c(C#N)c(N)c(C#N)c(-c4ccc(Cl)cc4)c3S2)cc1` (racemic), 48.3 µM.
The compound `N#Cc1c(N)c(C#N)c(-c2ccc(F)cc2)c2c1CC(c1ccc(Cl)cc1)S2` (racemic) had a concentration for half-maximal inhibition (IC50) of 39.2 µM. The IC50 values of the last two compounds are within 1.5-fold of each other.
Take `Cc1ccc(C2Cc3c(C#N)c(N)c(C#N)c(-c4ccc(Cl)cc4)c3S2)cc1` (racemic): the IC50 is 13.6 µM.
The compound `COc1ccc(-c2c(C#N)c(N)c(C#N)c3c2SC(c2ccc(Cl)cc2)C3)cc1` (racemic) came in with an IC50 of 26.6 µM.
For the compound `N#Cc1c(N)c(C#N)c(-c2ccc(Br)cc2)c2c1CC(c1ccc(Cl)cc1)S2` (racemic), the IC50 came to 41.3 µM.
As for `Cc1ccc(C2Cc3c(C#N)c(N)c(C#N)c(-c4ccc(Br)cc4)c3S2)cc1` (racemic), the figure is 24.2 µM; as for `CC(C)c1ccc(C2Cc3c(C#N)c(N)c(C#N)c(-c4ccc(F)cc4)c3S2)cc1` (racemic), 44.2 µM.
Under `N#Cc1c(N)c(C#N)c(-c2ccc(Cl)cc2)c2c1CC(c1ccc(Cl)cc1)S2` (racemic) stands 34.1 µM; under `Cc1ccc(-c2c(C#N)c(N)c(C#N)c3c2SC(c2ccccc2)C3)cc1` (racemic), 9.62 µM; under `N#Cc1c(N)c(C#N)c(-c2ccc(Cl)cc2)c2c1CC(c1ccccc1)S2` (racemic), 29.2 µM.
The compound `Cc1ccc(-c2c(C#N)c(N)c(C#N)c3c2SC(c2ccc(C)cc2)C3)cc1` (racemic) registered an IC50 of 4.24 µM.
Under `CC(C)c1ccc(-c2c(C#N)c(N)c(C#N)c3c2SC(c2ccccc2)C3)cc1` (racemic) stands 37.1 µM; under `Cc1ccc(-c2c(C#N)c(N)c(C#N)c3c2SC(c2ccc(Cl)cc2)C3)cc1` (racemic), 17.3 µM.
Under `COc1ccc(-c2c(C#N)c(N)c(C#N)c3c2SC(c2ccc(OC)cc2)C3)cc1` (racemic) stands 4.16 µM; under `COc1ccc(C2Cc3c(C#N)c(N)c(C#N)c(-c4ccc(C)cc4)c3S2)cc1` (racemic), 11.6 µM.

In general, IC50 refers to the concentration that inhibits the measured activity by half. Read a low IC50 as inhibition by little substance.
